# Laboratory results as given in patent US9133219B2, “Bicyclic antibiotics” (Basilea Pharmaceutica AG, priority 2009, dated 2015).
# Key:
# Type in all cases: cell-based
# [1] = system: Staphylococcus aureus and/or Staphylococcus epidermidis and/or Streptococcus pneumoniae; assay: MIC summary statement, staphylococci and pneumococci; conditions: generally, for Staphylococcus aureus and/or Staphylococcus epidermidis and/or Streptococcus pneumoniae
# Protocol: (§1) Anti-Microbial Activity Assay.
# (§2) The antibacterial activity of compounds is determined by the minimal inhibitory concentration (MIC) method. MICs for all bacteria except pneumococci and Haemophilus influenzae are obtained by broth microdilution with cation-adjusted Mueller-Hinton broth (CAMHB; BBL), according to CLSI guidelines (National Committee for Clinical Laboratory Standards. 2003. Methods for dilution antimicrobial susceptibility tests for bacteria that grow aerobically, 5th ed.; approved standard M7-A6. National Committee for Clinical Laboratory Standards, Wayne, Pa.), with the following modifications: (i) for pneumococci CAMHB is supplemented with 5% (^v/v) horse serum; (ii) for Haemophilus influenzae CAMHB is supplemented with 5% (^v/v) Fildes enrichment (BBL) (Pankuch, G. A., Hoellman, D. B., Lin, G., Bajaksouzian, S., Jacobs, M. R., and Appelbaum, P. C. 1998. Activity of HMR 3647 compared to those of five agents against Haemophilus influenzae and Moraxella catarrhalis by MIC determination and time-kill assay. Antimicrob. Agents Chemother. 42:3032-3034). Microtiter plates are incubated at 35° C. in ambient air for 20 to 24 h, then inspected using an illuminated microtiter plate reader fitted with a magnifying mirror (MIC 2000; Cooke Laboratory Products, Alexandria, Va.). Compounds of the present invention are tested against several bacteria strains comprising some Acinetobacter baumannii, Enterococcus faecalis, Enterococcus faecitan, Escherichia coli, Haemophilus influenzae, Klebsiella pneumoniae, Pseudomonas aeruginosa, Staphylococcus aureus, Staphylococcus epidermidis and Streptococcus pneumoniae.
# [2] = system: Staphylococcus aureus; assay: Anti-microbial activity assay, MIC by broth microdilution; conditions: Staphylococcus aureus; strain ATCC29213; read-out: MIC Staphylococcus aureus ATCC29213
# Protocol: as §1, §2
# [3] = system: Escherichia coli; assay: as above; conditions: Escherichia coli; strain UB1005; read-out: MIC Escherichia coli UB1005
# Protocol: as §1, §2
# [4] = system: Staphylococcus epidermidis; assay: as above; conditions: Staphylococcus epidermidis; strain ATCC14990
# Protocol: as §1, §2
# [5] = system: Staphylococcus aureus and/or Staphylococcus epidermidis and/or Streptococcus pneumoniae and/or Escherichia coli; assay: MIC summary statement, staphylococci, pneumococci and E. coli; conditions: generally, for S. aureus and/or S. epidermidis and/or S. pneumoniae and/or E. coli; in most case of less than 2 mg/L
# Protocol: as §1, §2
# [6] = system: Staphylococcus aureus and/or Staphylococcus epidermidis; assay: MIC summary statement, staphylococci; conditions: generally, for Staphylococcus aureus and/or Staphylococcus epidermidis
# Protocol: as §1, §2
# [7] = system: Streptococcus pneumoniae; assay: Anti-microbial activity assay, MIC by broth microdilution (CAMHB with 5% horse serum); conditions: Streptococcus pneumoniae; strain ATCC49619; CAMHB with 5% horse serum; read-out: MIC Streptococcus pneumoniae ATCC49619
# Protocol: as §1, §2
compound,measurement,setting,value
"COc1ccc2ncc(OCCCN3CCC(CNCc4ccc5c(n4)NC(=O)CO5)CC3)nc2c1 [Example 9, 6-[({1-[3-(7-methoxy-quinoxalin-2-yloxy)-propyl]-piperidin-4-ylmethyl}-amino)-methyl]-4H-pyrido[3,2-b][1,4]oxazin-3-one]",MIC,[1],≤ 2 µg/mL
same,MIC,[2],≤ 2 µg/mL
same,MIC,[3],4 µg/mL
same,MIC,[4],4 µg/mL
same,MIC,[5],≤ 4 µg/mL
same,MIC,[6],≤ 2 µg/mL
same,MIC,[7],≤ 2 µg/mL
"COc1ccc2ncc(SCCN3CCC(NC(=O)c4ccc5c(c4)NC(=O)CO5)CC3)nc2c1 [Example 36, 3-oxo-3,4-dihydro-2H-benzo[1,4]oxazine-6-carboxylic acid {1-[2-(7-methoxy-quinoxalin-2-ylsulfanyl)-ethyl]-piperidin-4-yl}-amide]",MIC,[1],≤ 2 µg/mL
same,MIC,[2],≤ 2 µg/mL
same,MIC,[3],4 µg/mL
same,MIC,[4],≤ 2 µg/mL
same,MIC,[5],≤ 4 µg/mL
same,MIC,[6],≤ 2 µg/mL
same,MIC,[7],≤ 2 µg/mL
"COc1ccc2ncc(SCCN3CCC(NC(=O)c4cc5c(cc4Cl)SCC(=O)N5)CC3)nc2c1 [Example 37, 7-chloro-3-oxo-3,4-dihydro-2H-benzo[1,4]thiazine-6-carboxylic acid {1-[2-(7-methoxy-quinoxalin-2-ylsulfanyl)-ethyl]-piperidin-4-yl}-amide]",MIC,[1],≤ 2 µg/mL
same,MIC,[2],≤ 2 µg/mL
same,MIC,[3],≤ 2 µg/mL
same,MIC,[4],≤ 2 µg/mL
same,MIC,[5],≤ 4 µg/mL
same,MIC,[6],≤ 2 µg/mL
same,MIC,[7],≤ 2 µg/mL
"COc1ccc2ncc(SCCN3CCC(NCCSc4cccs4)CC3)nc2c1 [Example 38, {1-[2-(7-methoxy-quinoxalin-2-ylsulfanyl)-ethyl]-piperidin-4-yl}-[2-(thiophen-2-ylsulfanyl)-ethyl]-amine]",MIC,[1],≤ 2 µg/mL
same,MIC,[2],≤ 2 µg/mL
same,MIC,[3],16 µg/mL
same,MIC,[4],≤ 2 µg/mL
same,MIC,[6],≤ 2 µg/mL
same,MIC,[7],≤ 2 µg/mL
"COc1ccc2ncc(SCCN3CCC(NC(=O)c4ccc5c(c4)OCCO5)CC3)nc2c1 [Example 39, 2,3-dihydro-benzo[1,4]dioxine-6-carboxylic acid {1-[2-(7-methoxy-quinoxalin-2-ylsulfanyl)-ethyl]-piperidin-4-yl}-amide]",MIC,[1],≤ 2 µg/mL
same,MIC,[2],≤ 2 µg/mL
same,MIC,[3],≥ 32 µg/mL
same,MIC,[4],≤ 2 µg/mL
same,MIC,[6],≤ 2 µg/mL
same,MIC,[7],≤ 2 µg/mL
"COc1ccc2ncc(SCCN3CCC(NCc4ccc5c(c4)OCCO5)CC3)nc2c1 [Example 41, (2,3-dihydro-benzo[1,4]dioxin-6-ylmethyl)-{1-[2-(7-methoxy-quinoxalin-2-ylsulfanyl)-ethyl]-piperidin-4-yl}-amine]",MIC,[1],≤ 2 µg/mL
same,MIC,[2],≤ 2 µg/mL
same,MIC,[3],8 µg/mL
same,MIC,[4],≤ 2 µg/mL
same,MIC,[6],≤ 2 µg/mL
same,MIC,[7],≤ 2 µg/mL
"COc1ccc2ncc(SCCN3CCC(NCc4cc(-c5cccs5)on4)CC3)nc2c1 [Example 42, {1-[2-(7-methoxy-quinoxalin-2-ylsulfanyl)-ethyl]-piperidin-4-yl}-(5-thiophen-2-yl-isoxazol-3-ylmethyl)-amine]",MIC,[1],≤ 2 µg/mL
same,MIC,[2],≤ 2 µg/mL
same,MIC,[3],8 µg/mL
same,MIC,[4],≤ 2 µg/mL
same,MIC,[6],≤ 2 µg/mL
same,MIC,[7],≤ 2 µg/mL
"COc1ccc2ncc(SCCN3CCC(N(C)Cc4ccc5c(c4)OCCO5)CC3)nc2c1 [Example 43, (2,3-dihydro-benzo[1,4]dioxin-6-ylmethyl)-{1-[2-(7-methoxy-quinoxalin-2-ylsulfanyl)-ethyl]-piperidin-4-yl}-methyl-amine]",MIC,[1],≤ 2 µg/mL
same,MIC,[2],≤ 2 µg/mL
same,MIC,[3],16 µg/mL
same,MIC,[4],≤ 2 µg/mL
same,MIC,[6],≤ 2 µg/mL
same,MIC,[7],≤ 2 µg/mL
"COc1ccc2ncc(SCCN3CCC(NC(=O)c4cc5c(cc4Cl)SCCN5)CC3)nc2c1 [Example 44, 7-chloro-3,4-dihydro-2H-benzo[1,4]thiazine-6-carboxylic acid {1-[2-(7-methoxy-quinoxalin-2-ylsulfanyl)-ethyl]-piperidin-4-yl}-amide]",MIC,[2],≤ 2 µg/mL
same,MIC,[3],4 µg/mL
same,MIC,[4],≤ 2 µg/mL
same,MIC,[5],≤ 4 µg/mL
same,MIC,[6],≤ 2 µg/mL
same,MIC,[7],4 µg/mL
"COc1ccc2ncc(SCCN3CCC(NCc4ccc5c(n4)NC(=O)CO5)CC3)nc2c1 [Example 45, 6-({1-[2-(7-methoxy-quinoxalin-2-ylsulfanyl)-ethyl]-piperidin-4-ylamino}-methyl)-4H-pyrido[3,2-b][1,4]oxazin-3-one]",MIC,[1],≤ 2 µg/mL
same,MIC,[2],≤ 2 µg/mL
same,MIC,[3],≤ 2 µg/mL
same,MIC,[4],≤ 2 µg/mL
same,MIC,[5],≤ 4 µg/mL
same,MIC,[6],≤ 2 µg/mL
same,MIC,[7],≤ 2 µg/mL
"COc1ccc2ncc(SCCN3CCC(NCc4ccc5c(c4)NC(=O)CS5)CC3)nc2c1 [Example 46, 6-({1-[2-(7-methoxy-quinoxalin-2-ylsulfanyl)-ethyl]-piperidin-4-ylamino}-methyl)-4H-benzo[1,4]thiazin-3-one]",MIC,[1],≤ 2 µg/mL
same,MIC,[2],≤ 2 µg/mL
same,MIC,[3],≤ 2 µg/mL
same,MIC,[4],≤ 2 µg/mL
same,MIC,[5],≤ 4 µg/mL
same,MIC,[6],≤ 2 µg/mL
same,MIC,[7],≤ 2 µg/mL
"CCN(Cc1ccc2c(c1)OCCO2)C1CCN(CCSc2cnc3ccc(OC)cc3n2)CC1 [Example 47, (2,3-dihydro-benzo[1,4]dioxin-6-ylmethyl)-ethyl-{1-[2-(7-methoxy-quinoxalin-2-ylsulfanyl)-ethyl]-piperidin-4-yl}-amine]",MIC,[1],≤ 2 µg/mL
same,MIC,[2],≤ 2 µg/mL
same,MIC,[3],32 µg/mL
same,MIC,[4],≤ 2 µg/mL
same,MIC,[6],≤ 2 µg/mL
same,MIC,[7],≤ 2 µg/mL
"COc1ccc2ncc(SCCN3CCC(NCc4cc5c(cc4Cl)SCC(=O)N5)CC3)nc2c1 [Example 48, 7-chloro-6-({1-[2-(7-methoxy-quinoxalin-2-ylsulfanyl)-ethyl]-piperidin-4-ylamino}-methyl)-4H-benzo[1,4]thiazin-3-one]",MIC,[1],≤ 2 µg/mL
same,MIC,[2],≤ 2 µg/mL
same,MIC,[3],≤ 2 µg/mL
same,MIC,[4],≤ 2 µg/mL
same,MIC,[5],≤ 4 µg/mL
same,MIC,[6],≤ 2 µg/mL
same,MIC,[7],≤ 2 µg/mL
"COc1ccc2ncc(SCCN3CCC(NCc4cc5c(cc4Cl)SCCN5)CC3)nc2c1 [Example 49, (7-chloro-3,4-dihydro-2H-benzo[1,4]thiazin-6-ylmethyl)-{1-[2-(7-methoxy-quinoxalin-2-ylsulfanyl)-ethyl]-piperidin-4-yl}-amine]",MIC,[1],≤ 2 µg/mL
same,MIC,[2],≤ 2 µg/mL
same,MIC,[3],4 µg/mL
same,MIC,[4],≤ 2 µg/mL
same,MIC,[5],≤ 4 µg/mL
same,MIC,[6],≤ 2 µg/mL
same,MIC,[7],≤ 2 µg/mL
"COc1ccc2ncc(SCCN3CCC(NC(=O)c4ccc5c(n4)NC(=O)CS5)CC3)nc2c1 [Example 50, 3-oxo-3,4-dihydro-2H-pyrido[3,2-b][1,4]thiazine-6-carboxylic acid {1-[2-(7-methoxy-quinoxalin-2-ylsulfanyl)-ethyl]-piperidin-4-yl}-amide]",MIC,[1],≤ 2 µg/mL
same,MIC,[2],≤ 2 µg/mL
same,MIC,[3],4 µg/mL
same,MIC,[4],≤ 2 µg/mL
same,MIC,[5],≤ 4 µg/mL
same,MIC,[6],≤ 2 µg/mL
same,MIC,[7],≤ 2 µg/mL
"COc1ccc2ncc(SCCN3CCC(NC(=O)c4nc5c(cc4Cl)SCC(=O)N5)CC3)nc2c1 [Example 51, 7-chloro-3-oxo-3,4-dihydro-2H-pyrido[3,2-b][1,4]thiazine-6-carboxylic acid {1-[2-(7-methoxy-quinoxalin-2-ylsulfanyl)-ethyl]-piperidin-4-yl}-amide]",MIC,[2],≤ 2 µg/mL
same,MIC,[3],4 µg/mL
same,MIC,[4],≤ 2 µg/mL
same,MIC,[5],≤ 4 µg/mL
same,MIC,[6],≤ 2 µg/mL
same,MIC,[7],4 µg/mL
"COc1ccc2ncc(SCCN3CCC(N(C)C(=O)c4ccc5c(c4)NC(=O)CS5)CC3)nc2c1 [Example 52, 3-oxo-3,4-dihydro-2H-benzo[1,4]thiazine-6-carboxylic acid {1-[2-(7-methoxy-quinoxalin-2-ylsulfanyl)-ethyl]-piperidin-4-yl}-methyl-amide]",MIC,[1],≤ 2 µg/mL
same,MIC,[2],≤ 2 µg/mL
same,MIC,[3],16 µg/mL
same,MIC,[4],≤ 2 µg/mL
same,MIC,[6],≤ 2 µg/mL
same,MIC,[7],≤ 2 µg/mL
"COc1ccc2ncc(SCCN3CCC(NC(=O)c4cc5c(cc4Cl)SCC(=O)N5)CC3)cc2c1 [Example 54, 7-chloro-3-oxo-3,4-dihydro-2H-benzo[1,4]thiazine-6-carboxylic acid {1-[2-(6-methoxy-quinolin-3-ylsulfanyl)-ethyl]-piperidin-4-yl}-amide]",MIC,[2],≤ 2 µg/mL
same,MIC,[3],4 µg/mL
same,MIC,[4],≤ 2 µg/mL
same,MIC,[5],≤ 4 µg/mL
same,MIC,[6],≤ 2 µg/mL
same,MIC,[7],4 µg/mL
"COc1ccc2ncc(SCCN3CCC(NC(=O)c4ccc5c(n4)NC(=O)CS5)CC3)cc2c1 [Example 55, 3-oxo-3,4-dihydro-2H-pyrido[3,2-b][1,4]thiazine-6-carboxylic acid {1-[2-(6-methoxy-quinolin-3-ylsulfanyl)-ethyl]-piperidin-4-yl}-amide]",MIC,[1],≤ 2 µg/mL
same,MIC,[2],≤ 2 µg/mL
same,MIC,[3],16 µg/mL
same,MIC,[4],≤ 2 µg/mL
same,MIC,[6],≤ 2 µg/mL
same,MIC,[7],≤ 2 µg/mL
